Measured values: patent US11231421B2, “Methods of treating multifocal cancer” (NYMOX CORPORATION, priority 2019, dated 2022)
Where no end group is shown, it is not given here.

Columns and labels:
[1] = system: low grade prostate cancer (Gleason grade 6); assay: Clinical study, Example 3: hemi-prostate multifocal cancer with Gleason upgrade; assay type: in vivo, human; conditions: for % Imp.: hemi-prostate multifocal cancer with Gleason upgrade: vs control active surveillance
Procedure: (§1) In a series of clinical studies a total of 146 men with low grade prostate cancer (Gleason grade 6) were treated in the following manner. Patients were randomized and treated with a transrectal intraprostatic single injection of a composition comprising 2.5 mg FT (n=49), or a composition comprising 15 mg FT (n=48), or were subject to control active surveillance (n=49). After the first follow-up biopsy at 45 days post-randomization, 18 patients in the control active surveillance group crossed over to a single administration of a composition in which 10 patients received 2.5 mg FT, and 8 patients received 15 mg FT. Patients were followed for 5 years including biopsies at baseline, 45 days, 18, 36, and 48 months, and urological evaluations with PSA every 6 months. Patients with Gleason grade increase or who elected surgical or radiotherapeutic intervention exited the study and were still included in the data analysis. Percentage of normal biopsies in the baseline focus quadrant and median tumor grade and volume were assessed; progression was measured by clinical and pathological outcomes including Gleason grade, and Gleason grade primary pattern, in the entire prostate sampled as well as for the treated prostate lobe. Interventions associated with Gleason grade increase as well as total incidence for any conventional surgical intervention (e.g., surgery, radiotherapy, and/or chemotherapy) was assessed.

[2] = system: prostate glandular epithelial cells; assay: In vitro tissue culture genetic array and cell effects; assay type: cell-based
Excerpt: (§2) Use of FT is a preferred embodiment. FT is a new molecular entity which in vitro stimulates caspase pathways (activation of caspases 7, 8, and 10, caspase recruitment domains 6, 11, and 14, and DIABLO), tumor necrosis factor pathways (activation of TNF1, TNFSF6, TNFSF8, TNFSF9, CD70 ligands, and TNFRSF19L, TNFRSF25, TRAF2, TRAF3, TRAF4, TRAF6 receptors), and BCL pathways (activation of BIK, HRK, BCL2L10 and BCL3) in prostate glandular epithelial cells, based on tissue culture genetic array data. […] The apoptotic process leads to typical ultrastructural progressive changes of membranous disruption and swelling, progressively deepening nuclear invaginations with eventual membranous bleb formations and cell death and fragmentation into apoptotic bodies.

[3] = system: low grade prostate cancer (Gleason grade 6); assay: Clinical study, Example 4: hemi-prostate multifocal cancer with increase in Gleason primary pattern; assay type: in vivo, human; conditions: for % Imp.: hemi-prostate multifocal cancer with increase in Gleason primary pattern: vs control active surveillance
Procedure: as §1

[4] = system: injected areas; assay: Histology of injected areas after treatment; assay type: in vivo; conditions: up to several weeks after treatment
Excerpt: as §2

[5] = system: low grade prostate cancer (Gleason grade 6); assay: Clinical study, Example 6: cancer treatment with new multifocal and an increase in Gleason grade primary pattern; assay type: in vivo, human; conditions: for % Imp.: cancer treatment with new multifocal and an increase in Gleason grade primary pattern, entire prostate: vs control active surveillance
Procedure: as §1

[6] = system: low grade prostate cancer (Gleason grade 6); assay: Clinical study, Example 8: cancer treatment with new multifocal and an increase in Gleason grade primary pattern in the hemi-prostate; assay type: in vivo, human; conditions: for % Imp.: cancer treatment with new multifocal and an increase in Gleason grade primary pattern in the hemi-prostate: vs control active surveillance
Procedure: as §1, with “assessed. This example evaluated the percentage of patients having conventional cancer treatment (surgery, radiotherapy, or chemotherapy), and having multifocal prostate cancer in the lobe (or hemi-prostate) in which the foci were initially treated with Gleason primary pattern (cancer treatment with new multifocal and an increase in Gleason grade primary pattern in the hemi-prostate).” for “assessed.”

[7] = FT 2.5 mg, <=18 mos from treatment
[8] = FT 2.5 mg, <=36 mos from treatment
[9] = FT 2.5 mg, <=48 mos from treatment
[10] = FT 15 mg, <=18 mos from treatment
[11] = FT 15 mg, <=36 mos from treatment
[12] = FT 15 mg, <=48 mos from treatment
[13] = Pooled FT (2.5 mg and 15 mg), <=18 mos from treatment
[14] = Pooled FT (2.5 mg and 15 mg), <=18 mos
[15] = Pooled FT (2.5 mg and 15 mg), <=36 mos from treatment
[16] = Pooled FT (2.5 mg and 15 mg), <=36 mos
[17] = Pooled FT (2.5 mg and 15 mg), <=48 mos from treatment
[18] = Pooled FT (2.5 mg and 15 mg), <=48 mos
[19] = in vitro, tissue culture genetic array data

## fexapotide triflutate (IDQQVLSRIKLEIKRCL; also: trifluoroacetate salt) [FT]
[1]; [7]
  percentage of patients: hemi-prostate multifocal cancer with Gleason upgrade: 8.6%
[1]; FT 2.5 mg, <=18 mos
  % Imp.: hemi-prostate multifocal cancer with Gleason upgrade: 54.26%
[1]; [8]
  percentage of patients: hemi-prostate multifocal cancer with Gleason upgrade: 16.7%
[1]; FT 2.5 mg, <=36 mos
  % Imp.: hemi-prostate multifocal cancer with Gleason upgrade: 53.2%
[1]; [9]
  percentage of patients: hemi-prostate multifocal cancer with Gleason upgrade: 42.9%
[1]; FT 2.5 mg, <=48 mos
  % Imp.: hemi-prostate multifocal cancer with Gleason upgrade: 5.7%
[1]; [10]
  percentage of patients: hemi-prostate multifocal cancer with Gleason upgrade: 5.7%
[1]; FT 15 mg, <=18 mos
  % Imp.: hemi-prostate multifocal cancer with Gleason upgrade: 69.7%
[1]; [11]
  percentage of patients: hemi-prostate multifocal cancer with Gleason upgrade: 9.1 (p = 0.049) %
[1]; FT 15 mg, <=36 mos
  % Imp.: hemi-prostate multifocal cancer with Gleason upgrade: 74.5%
[1]; [12]
  percentage of patients: hemi-prostate multifocal cancer with Gleason upgrade: 13.3%
[1]; FT 15 mg, <=48 mos
  % Imp.: hemi-prostate multifocal cancer with Gleason upgrade: 70.8%
[1]; [13]
  percentage of patients: hemi-prostate multifocal cancer with Gleason upgrade: 7.1%
[1]; [14]
  % Imp.: hemi-prostate multifocal cancer with Gleason upgrade: 62.2%
[1]; [15]
  percentage of patients: hemi-prostate multifocal cancer with Gleason upgrade: 13.0 (p = 0.0549) %
[1]; [16]
  % Imp.: hemi-prostate multifocal cancer with Gleason upgrade: 63.6%
[1]; [17]
  percentage of patients: hemi-prostate multifocal cancer with Gleason upgrade: 27.6%
[1]; [18]
  % Imp.: hemi-prostate multifocal cancer with Gleason upgrade: 39.3%
[2]
  cellular effects: selectively causes loss of cell membrane integrity, mitochondrial metabolic arrest, depletion of RNA, DNA lysis and aggregation, and cell fragmentation and cell loss
[2]; [19]
  BCL pathways (activation of BIK, HRK, BCL2L10 and BCL3): stimulates
  caspase pathways (activation of caspases 7, 8, and 10, caspase recruitment domains 6, 11, and 14, and DIABLO): stimulates
  tumor necrosis factor pathways (activation of TNF1, TNFSF6, TNFSF8, TNFSF9, CD70 ligands, and TNFRSF19L, TNFRSF25, TRAF2, TRAF3, TRAF4, TRAF6 receptors): stimulates
[3]; [7]
  percentage of patients: hemi-prostate multifocal cancer with increase in Gleason primary pattern: 0 (p = 0.033) %
[3]; FT 2.5 mg, <=18 mos
  % Imp.: hemi-prostate multifocal cancer with increase in Gleason primary pattern: 100%
[3]; [8]
  percentage of patients: hemi-prostate multifocal cancer with increase in Gleason primary pattern: 0 (p = 0.018) %
[3]; FT 2.5 mg, <=36 mos
  % Imp.: hemi-prostate multifocal cancer with increase in Gleason primary pattern: 100%
[3]; [9]
  percentage of patients: hemi-prostate multifocal cancer with increase in Gleason primary pattern: 0 (p = 0.037) %
[3]; FT 2.5 mg, <=48 mos
  % Imp.: hemi-prostate multifocal cancer with increase in Gleason primary pattern: 100%
[3]; [10]
  percentage of patients: hemi-prostate multifocal cancer with increase in Gleason primary pattern: 2.9%
[3]; FT 15 mg, <=18 mos
  % Imp.: hemi-prostate multifocal cancer with increase in Gleason primary pattern: 76.8%
[3]; [11]
  percentage of patients: hemi-prostate multifocal cancer with increase in Gleason primary pattern: 4.5%
[3]; FT 15 mg, <=36 mos
  % Imp.: hemi-prostate multifocal cancer with increase in Gleason primary pattern: 79%
[3]; [12]
  percentage of patients: hemi-prostate multifocal cancer with increase in Gleason primary pattern: 6.7%
[3]; FT 15 mg, <=48 mos
  % Imp.: hemi-prostate multifocal cancer with increase in Gleason primary pattern: 75.5%
[3]; [13]
  percentage of patients: hemi-prostate multifocal cancer with increase in Gleason primary pattern: 1.4 (p = 0.03) %
[3]; [14]
  % Imp.: hemi-prostate multifocal cancer with increase in Gleason primary pattern: 88.8%
[3]; [15]
  percentage of patients: hemi-prostate multifocal cancer with increase in Gleason primary pattern: 2.2 (p = 0.011) %
[3]; [16]
  % Imp.: hemi-prostate multifocal cancer with increase in Gleason primary pattern: 89.7%
[3]; [17]
  percentage of patients: hemi-prostate multifocal cancer with increase in Gleason primary pattern: 3.4 (p = 0.025) %
[3]; [18]
  % Imp.: hemi-prostate multifocal cancer with increase in Gleason primary pattern: 87.5%
[4]
  histological changes in injected areas: typical apoptotic changes with positive immunohistochemical staining of markers for apoptosis are found throughout the injected areas
[5]; [7]
  percentage of patients: cancer treatment with new multifocal and an increase in Gleason grade primary pattern, entire prostate: 0 (p = 0.001) %
[5]; FT 2.5 mg, <=18 mos
  % Imp.: cancer treatment with new multifocal and an increase in Gleason grade primary pattern, entire prostate: 100%
[5]; [8]
  percentage of patients: cancer treatment with new multifocal and an increase in Gleason grade primary pattern, entire prostate: 0 (p = 0.006) %
[5]; FT 2.5 mg, <=36 mos
  % Imp.: cancer treatment with new multifocal and an increase in Gleason grade primary pattern, entire prostate: 100%
[5]; [9]
  percentage of patients: cancer treatment with new multifocal and an increase in Gleason grade primary pattern, entire prostate: 0 (p = 0.0040) %
[5]; FT 2.5 mg, <=48 mos
  % Imp.: cancer treatment with new multifocal and an increase in Gleason grade primary pattern, entire prostate: 100%
[5]; [10]
  percentage of patients: cancer treatment with new multifocal and an increase in Gleason grade primary pattern, entire prostate: 2.6 (p = 0.06) %
[5]; FT 15 mg, <=18 mos
  % Imp.: cancer treatment with new multifocal and an increase in Gleason grade primary pattern, entire prostate: 83.5%
[5]; [11]
  percentage of patients: cancer treatment with new multifocal and an increase in Gleason grade primary pattern, entire prostate: 3.6 (p = 0.04) %
[5]; FT 15 mg, <=36 mos
  % Imp.: cancer treatment with new multifocal and an increase in Gleason grade primary pattern, entire prostate: 84.7%
[5]; [12]
  percentage of patients: cancer treatment with new multifocal and an increase in Gleason grade primary pattern, entire prostate: 4.2 (p = 0.019) %
[5]; FT 15 mg, <=48 mos
  % Imp.: cancer treatment with new multifocal and an increase in Gleason grade primary pattern, entire prostate: 86.6%
[5]; [13]
  percentage of patients: cancer treatment with new multifocal and an increase in Gleason grade primary pattern, entire prostate: 1.3 (p = 0.04) %
[5]; [14]
  % Imp.: cancer treatment with new multifocal and an increase in Gleason grade primary pattern, entire prostate: 91.8%
[5]; [15]
  percentage of patients: cancer treatment with new multifocal and an increase in Gleason grade primary pattern, entire prostate: 1.7 (p = 0.002) %
[5]; [16]
  % Imp.: cancer treatment with new multifocal and an increase in Gleason grade primary pattern, entire prostate: 92.8%
[5]; [17]
  percentage of patients: cancer treatment with new multifocal and an increase in Gleason grade primary pattern, entire prostate: 2.1 (p = 0.001) %
[5]; [18]
  % Imp.: cancer treatment with new multifocal and an increase in Gleason grade primary pattern, entire prostate: 93.3%
[6]; [7]
  percentage of patients: cancer treatment with new multifocal and an increase in Gleason grade primary pattern in the hemi-prostate: 0 (p = 0.025) %
[6]; FT 2.5 mg, <=18 mos
  % Imp.: cancer treatment with new multifocal and an increase in Gleason grade primary pattern in the hemi-prostate: 100%
[6]; [8]
  percentage of patients: cancer treatment with new multifocal and an increase in Gleason grade primary pattern in the hemi-prostate: 0 (p = 0.017) %
[6]; FT 2.5 mg, <=36 mos
  % Imp.: cancer treatment with new multifocal and an increase in Gleason grade primary pattern in the hemi-prostate: 100%
[6]; [9]
  percentage of patients: cancer treatment with new multifocal and an increase in Gleason grade primary pattern in the hemi-prostate: 0 (p = 0.031) %
[6]; FT 2.5 mg, <=48 mos
  % Imp.: cancer treatment with new multifocal and an increase in Gleason grade primary pattern in the hemi-prostate: 100%
[6]; [10]
  percentage of patients: cancer treatment with new multifocal and an increase in Gleason grade primary pattern in the hemi-prostate: 2.6%
[6]; FT 15 mg, <=18 mos
  % Imp.: cancer treatment with new multifocal and an increase in Gleason grade primary pattern in the hemi-prostate: 75.2%
[6]; [11]
  percentage of patients: cancer treatment with new multifocal and an increase in Gleason grade primary pattern in the hemi-prostate: 3.6%
[6]; FT 15 mg, <=36 mos
  % Imp.: cancer treatment with new multifocal and an increase in Gleason grade primary pattern in the hemi-prostate: 79.5%
[6]; [12]
  percentage of patients: cancer treatment with new multifocal and an increase in Gleason grade primary pattern in the hemi-prostate: 4.2%
[6]; FT 15 mg, <=48 mos
  % Imp.: cancer treatment with new multifocal and an increase in Gleason grade primary pattern in the hemi-prostate: 77.7%
[6]; [13]
  percentage of patients: cancer treatment with new multifocal and an increase in Gleason grade primary pattern in the hemi-prostate: 1.3 (p = 0.034) %
[6]; [14]
  % Imp.: cancer treatment with new multifocal and an increase in Gleason grade primary pattern in the hemi-prostate: 87.6%
[6]; [15]
  percentage of patients: cancer treatment with new multifocal and an increase in Gleason grade primary pattern in the hemi-prostate: 1.7 (p = 0.01) %
[6]; [16]
  % Imp.: cancer treatment with new multifocal and an increase in Gleason grade primary pattern in the hemi-prostate: 90.3%
[6]; [17]
  percentage of patients: cancer treatment with new multifocal and an increase in Gleason grade primary pattern in the hemi-prostate: 2.1 (p = 0.019) %
[6]; [18]
  % Imp.: cancer treatment with new multifocal and an increase in Gleason grade primary pattern in the hemi-prostate: 88.8%
